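How tested: cells in 96-well plates exposed to compound for 48 hours at five concentrations. GI50: concentration for 50% inhibition of growth. TGI is the concentration that stops growth completely.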 Where only a bound is given, the exact number is not on record here.

Among the test systems are HCT-116 colon; U251 CNS; CCRF-CEM leukemia; BT-549 breast; MOLT-4 leukemia; LOX IMVI melanoma; HT29 colon; NCI/ADR-RES ovarian.
What all share (test): NCI anticancer screen, dose series, 48 h

For the compound `CC(=O)OC[C@]1(C)C=C2C(=O)[C@](C)(O)C3(CC3)C(C)=C2[C@H]1O`, the GI50 in the assay on HCT-116 colon was 0.0321 µM; in the assay with U251 CNS, 0.068 µM; with CCRF-CEM leukemia, 0.206 µM; in the assay with BT-549 breast, 0.148 µM; with MOLT-4 leukemia it was 0.0629 µM; in the assay on LOX IMVI melanoma, 0.0875 µM. Also, the GI50 with HT29 colon was 0.0339 µM; with NCI/ADR-RES ovarian it was 0.0772 µM. Also, the TGI in the assay with HCT-116 colon was over 100 µM; with U251 CNS, 6.16 µM; in the assay on CCRF-CEM leukemia, over 100 µM; in the assay on BT-549 breast, 0.556 µM; in the assay on MOLT-4 leukemia it was over 100 µM; in the assay with LOX IMVI melanoma, 0.65 µM. For the same compound, the TGI in the assay with HT29 colon is over 100 µM; in the assay on NCI/ADR-RES ovarian, 0.804 µM.
For `CC(C)c1nc(CN(C)C(=O)N[C@H](C(=O)N[C@@H](Cc2ccccc2)C[C@H](O)[C@H](Cc2ccccc2)NC(=O)OCc2cncs2)C(C)C)cs1`, the GI50 with HCT-116 colon was 19.9 µM; in the assay on U251 CNS, 24.3 µM; in the assay on CCRF-CEM leukemia, 19.8 µM; in the assay with BT-549 breast, 8.71 µM; with MOLT-4 leukemia, 7.54 µM; with LOX IMVI melanoma, 18.9 µM. Further, the values for the GI50 in the assay on HT29 colon and in the assay with NCI/ADR-RES ovarian were 19.3 µM and 37.9 µM, respectively. Also, the TGI was 50.1 µM in the assay on HCT-116 colon; 71.2 µM in the assay on U251 CNS; 50.5 µM in the assay with CCRF-CEM leukemia; over 76.5 µM in the assay on BT-549 breast; 27.5 µM with MOLT-4 leukemia; 40.1 µM with LOX IMVI melanoma. Also, the TGI is 50.6 µM with HT29 colon and over 100 µM in the assay on NCI/ADR-RES ovarian.
Take `CN1CCN(C(=O)OCc2nc3c(N4CCOCC4)nc(Cl)nc3n2C)CC1`: the GI50 is 0.343 µM in the assay with HCT-116 colon; 1.52 µM with U251 CNS; 0.313 µM in the assay with CCRF-CEM leukemia; 1.09 µM with BT-549 breast; 1.19 µM in the assay with MOLT-4 leukemia; 0.579 µM in the assay with LOX IMVI melanoma. The results for the GI50 with HT29 colon and with NCI/ADR-RES ovarian were 0.898 µM and 2.46 µM, respectively. Moreover, the TGI in the assay on HCT-116 colon stood at 1.62 µM; with U251 CNS, 3.39 µM; in the assay with CCRF-CEM leukemia, 1.78 µM; in the assay on BT-549 breast it was 2.44 µM; in the assay on MOLT-4 leukemia, 4.69 µM; in the assay with LOX IMVI melanoma, 1.99 µM. Besides, the TGI in the assay with HT29 colon was 3.17 µM; in the assay on NCI/ADR-RES ovarian it was 9.59 µM.
On to `Cn1c2ccccc2c2c(-c3ccccc3)[n+]3ccncc3nc21`, for which the GI50 with HCT-116 colon is over 100 µM; in the assay with U251 CNS it was 47.4 µM; in the assay with CCRF-CEM leukemia, 89.4 µM; with BT-549 breast, 29.6 µM; in the assay on MOLT-4 leukemia, over 100 µM; in the assay on LOX IMVI melanoma it was over 100 µM. The GI50 with HT29 colon and with NCI/ADR-RES ovarian was over 100 µM each time. The TGI in the assay with HCT-116 colon, in the assay with U251 CNS, with CCRF-CEM leukemia, with BT-549 breast, with MOLT-4 leukemia and with LOX IMVI melanoma was over 100 µM in each case. Also, the TGI in the assay on HT29 colon and with NCI/ADR-RES ovarian was over 100 µM in each case.
As to `C[C@@H]1OC(O)[C@@H](F)[C@H](O)[C@@H]1O` (stereo partly specified), the GI50 in the assay on HCT-116 colon, in the assay with U251 CNS, in the assay on CCRF-CEM leukemia, in the assay with BT-549 breast, in the assay on MOLT-4 leukemia and in the assay with LOX IMVI melanoma was over 100 µM each time. Besides, the GI50 with HT29 colon and in the assay on NCI/ADR-RES ovarian was over 100 µM in each case. Moreover, the TGI in the assay on HCT-116 colon, in the assay on U251 CNS, with CCRF-CEM leukemia, in the assay with BT-549 breast, in the assay on MOLT-4 leukemia and with LOX IMVI melanoma was over 100 µM each time. The TGI in the assay with HT29 colon and with NCI/ADR-RES ovarian was over 100 µM each time.
In the case of `Cn1c(=O)c2[nH]c(SCc3ccccn3)nc2n(C)c1=S`, the TGI with HCT-116 colon, in the assay on U251 CNS, with CCRF-CEM leukemia, with BT-549 breast, in the assay on MOLT-4 leukemia and in the assay on LOX IMVI melanoma was over 100 µM in each case. Further, the TGI in the assay with HT29 colon and in the assay with NCI/ADR-RES ovarian was over 100 µM each time.
Consider `Cc1ccc(NC(=O)c2cccc(N(C)C)c2)cc1NC(=O)c1ccc(O)cc1`, for which the GI50 is over 59.4 µM with HCT-116 colon; over 68.8 µM with U251 CNS; 16.6 µM in the assay with CCRF-CEM leukemia; over 64 µM in the assay with BT-549 breast; over 72.4 µM in the assay with MOLT-4 leukemia; over 62 µM in the assay on LOX IMVI melanoma. In addition, the GI50 is over 57.3 µM with HT29 colon and over 72 µM in the assay on NCI/ADR-RES ovarian. In addition, the TGI with HCT-116 colon, in the assay on U251 CNS, with CCRF-CEM leukemia, in the assay with BT-549 breast, in the assay on MOLT-4 leukemia and with LOX IMVI melanoma was over 100 µM each time. In addition, the TGI with HT29 colon and with NCI/ADR-RES ovarian was over 100 µM each time.
For the compound `NC(=O)c1ccc(I)c(N)c1`, the GI50 in the assay on HCT-116 colon, in the assay on U251 CNS, with CCRF-CEM leukemia, with BT-549 breast, in the assay on MOLT-4 leukemia and in the assay on LOX IMVI melanoma was over 100 µM in each case. The GI50 with HT29 colon and with NCI/ADR-RES ovarian was over 100 µM each time. Also, the TGI in the assay with HCT-116 colon, in the assay on U251 CNS, in the assay on CCRF-CEM leukemia, in the assay on BT-549 breast, with MOLT-4 leukemia and in the assay on LOX IMVI melanoma was over 100 µM in each case. Moreover, the TGI in the assay with HT29 colon and in the assay on NCI/ADR-RES ovarian was over 100 µM in each case.
For the compound `C=C1C(=O)O[C@H]2[C@H]1CC/C(COC(=O)c1ccc3ccccc3c1)=C\CC[C@@]1(C)O[C@@H]21`, the GI50 in the assay with HCT-116 colon is 0.379 µM; in the assay with U251 CNS it was 1.21 µM; in the assay on CCRF-CEM leukemia, 0.28 µM; in the assay on BT-549 breast it was 0.57 µM; in the assay on MOLT-4 leukemia, 0.503 µM; in the assay with LOX IMVI melanoma, 0.406 µM. Moreover, the GI50 with HT29 colon is 0.438 µM; in the assay with NCI/ADR-RES ovarian it was 2.32 µM. The TGI is 1.6 µM in the assay on HCT-116 colon; 2.5 µM with U251 CNS; 1.38 µM in the assay on CCRF-CEM leukemia; 2.03 µM in the assay with BT-549 breast; 3.47 µM in the assay on MOLT-4 leukemia; 1.46 µM in the assay with LOX IMVI melanoma. Besides, the TGI in the assay with HT29 colon turned out to be 1.65 µM; in the assay with NCI/ADR-RES ovarian, 10.2 µM.
